Experimental data: US20220184071A1, “GEPOTIDACIN FOR USE IN THE TREATMENT OF BACTERIAL URINARY TRACT INFECTIONS” (GlaxoSmithKline Intellectual Property Development Limited, priority 2019, published 2022)
In brackets after ≈: the same amount, converted by molar mass. Where two headings read alike, the source gives them in different places.

Tests used:
E. coli = experiment: Phase IIa baseline uropathogen susceptibility testing (CLSI broth microdilution); assay type: cell-based, Escherichia coli; conditions: Escherichia coli, read-out: GEP MIC
Method: (§1) This phase IIa single center study evaluated the safety, tolerability, pharmacokinetics, and efficacy of oral gepotidacin 1500 mg BID for 5 days in female subjects with acute cystitis. Clean catch mid-stream urine specimens were obtained for quantitative culture by standard methods. Urine samples were taken from all participants pre-treatment (baseline) and at all post-baseline visits. All urine samples were sent to a central laboratory (PPD Global Clinical Laboratories, Highland Heights, Ky., USA) for Gram stain, quantitative culture, pathogen identification and susceptibility testing. See FIG. 1 for participant disposition and study outline.
(§2) Susceptibility testing by CLSI broth microdilution and gradient diffusion (fosfomycin only) was conducted (CLSI, 2015, Methods for dilution antimicrobial susceptibility tests for bacteria that grow aerobically; approved standard-tenth edition; and CLSI, 2018. Performance Standards for Antimicrobial Susceptibility Testing; Twenty-seventh Informational Supplement M100-S28). Inclusion in the microbiological intent-to-treat population (micro-ITT), required growth of a qualifying baseline uropathogen (≥10^5 CFU/mL). See FIG. 2 for the baseline algorithm.

Acinetobacter pittii = experiment: Phase IIa non-qualifying baseline uropathogen MIC; assay type: cell-based; conditions: baseline uropathogen recovered at <10^5 CFU/mL
Method: as §1, §2

[1] = tested on: Staphylococcus saprophyticus; experiment: MIC by CLSI broth microdilution, Example 1 Method 1; assay type: cell-based
Method: Unless otherwise stated, the Clinical and Laboratory Standards Institute (CLSI) recommended procedure is as set out in the edition of CLSI Approved Standard […]. Methods for Dilution Antimicrobial Susceptibility Tests for Bacteria That Grow Aerobically” at the time of testing. Antimicrobial activity was determined by broth microdilution using the CLSI recommended procedure. Gepotidacin was tested in serial two-fold dilutions and the minimum inhibitory concentration (MIC) was determined as the lowest concentration of the compound that inhibited visible growth. Gepotidacin was tested against 28 strains of Staphylococcus saprophyticus collected from multiple hospitals. Amoxicillin, azithromycin, levofloxacin and cefuroxime were included as comparators. MICs for gepotidacin and comparators were determined by broth microdilution according to CLSI methods.

Bifidobacterium longum = experiment: MIC by agar dilution, drug-resistant isolates; assay type: cell-based; conditions: moxifloxacin R; 1 isolate
Method: (§3) Antimicrobial activity was determined by agar dilution using the Clinical and Laboratory Standards Institute (CLSI) recommended procedure.
(§4) The compounds were tested in serial two-fold dilutions and the minimum inhibitory concentration (MIC) was determined as the lowest concentration of the compound that inhibited visible growth. Gepotidacin was tested against 333 gram-negative anaerobic and 203 gram-positive anaerobic isolates collected from clinical samples in North America and Europe from 2000 to 2017; the majority collected from 2013 to 2016.
(§5) Additional analysis was performed from the results of the study described in Method 1 above, to determine the in vitro activity of gepotidacin against gram-negative and gram-positive anaerobic organisms with resistance to ceftriaxone, clindamycin, imipenem, metronidazole, moxifloxacin and piperacillin/tazobactam.

[2] = tested on: Fusobacterium necrophorum; experiment: MIC by agar dilution, drug-resistant isolates; assay type: cell-based; conditions: clindamycin R; 1 isolate
Method: as §3, §4, §5

Porphyromonas somerae = experiment: MIC by agar dilution, drug-resistant isolates; assay type: cell-based; conditions: clindamycin R; 1 isolate
Method: as §3, §4, §5

Bacteroides stercoris = experiment: MIC by agar dilution, drug-resistant isolates; assay type: cell-based; conditions: ceftriaxone R, 2 isolates
Method: as §3, §4, §5

Bacteroides fragilis = experiment: MIC by agar dilution, drug-resistant isolates; assay type: cell-based
Method: as §3, §4, §5

[3] = tested on: Bifidobacterium adolescentis; experiment: MIC by agar dilution, drug-resistant isolates; assay type: cell-based; conditions: moxifloxacin R; 1 isolate
Method: as §3, §4, §5

[4] = tested on: Fusobacterium, non-speciated; experiment: MIC by agar dilution, drug-resistant isolates; assay type: cell-based; conditions: 1 isolate
Method: as §3, §4, §5

[5] = tested on: Veillonella, non-speciated; experiment: MIC by agar dilution, drug-resistant isolates; assay type: cell-based
Method: as §3, §4, §5

[6] = tested on: Bacteroides thetaiotaomicron; experiment: MIC by agar dilution, drug-resistant isolates; assay type: cell-based
Method: as §3, §4, §5

Eubacterium limosum = experiment: MIC by agar dilution, drug-resistant isolates; assay type: cell-based; conditions: moxifloxacin R; 2 isolates
Method: as §3, §4, §5

Prevotella buccae = experiment: MIC by agar dilution, drug-resistant isolates; assay type: cell-based; conditions: 4 isolates
Method: as §3, §4, §5

Porphyromonas levii = experiment: MIC by agar dilution, drug-resistant isolates; assay type: cell-based; conditions: metronidazole R; 1 isolate
Method: as §3, §4, §5

Lactobacillus rhamnosus = experiment: MIC by agar dilution, drug-resistant isolates; assay type: cell-based; conditions: imipenem R; 18 isolates
Method: as §3, §4, §5

[7] = tested on: Eubacterium, non-speciated; experiment: MIC by agar dilution, drug-resistant isolates; assay type: cell-based; conditions: 1 isolate
Method: as §3, §4, §5

Veillonella parvula = experiment: MIC by agar dilution, drug-resistant isolates; assay type: cell-based
Method: as §3, §4, §5

[8] = tested on: Prevotella melaninogenica; experiment: MIC by agar dilution, drug-resistant isolates; assay type: cell-based; conditions: 1 isolate
Method: as §3, §4, §5

[9] = tested on: Porphyromonas, non-speciated; experiment: MIC by agar dilution, drug-resistant isolates; assay type: cell-based; conditions: 1 isolate
Method: as §3, §4, §5

[10] = tested on: Lactobacillus, non-speciated; experiment: MIC by agar dilution, drug-resistant isolates; assay type: cell-based
Method: as §3, §4, §5

Bacteroides uniformis = experiment: MIC by agar dilution, drug-resistant isolates; assay type: cell-based
Method: as §3, §4, §5

[11] = tested on: Proteus hauseri and Proteus peneri; experiment: MIC by CLSI agar dilution, Example 1 Method 2; assay type: cell-based; conditions: at least one strain of every organism listed
Method: Antimicrobial activity was determined in a second study by […] using the CLSI recommended procedure in serial two-fold dilutions and the minimum inhibitory concentration (MIC) was determined as the lowest concentration of the compound that inhibited visible growth. Amikacin, ceftazidime, colistin, fosfomycin, levofloxacin, meropenem, nitrofurantoin and trimethoprim-sulfamethoxazole were included as comparators. MICs for and comparators were determined by agar dilution according CLSI methods. In addition, gepotidacin and all of the aforementioned comparators identified in this method were evaluated against gram-negative aerobic organisms selected from Proteus hauseri and Proteus […]. Gepotidacin was tested in at least one exemplified salt.

O=c1ccc2ncc(=O)n3c2n1C[C@H]3CN1CCC(NCc2cc3c(cn2)OCCC3)CC1 [gepotidacin, (2R)-2-({4-[(3,4-dihydro-2H-pyrano[2,3-c]pyridin-6-ylmethyl)amino]-1-piperidinyl}methyl)-1,2-dihydro-3H,8H-2a,5,8a-triazaacenaphthylene-3,8-dione]
MIC (E. coli; Participant 2): 2 µg/mL (≈ 4.46 µM) | MIC (E. coli; Participant 3): 0.5 µg/mL (≈ 1.11 µM) | MIC (E. coli; Participant 4): 2 µg/mL (≈ 4.46 µM) | MIC (E. coli; Participant 5, MDR and fluoroquinolone-resistant): 1 µg/mL (≈ 2.23 µM) | MIC (E. coli; Participant 6, MDR): 2 µg/mL (≈ 4.46 µM) | MIC (Acinetobacter pittii): 1 µg/mL (≈ 2.23 µM) | MIC90 ([1]; 28 isolates): 0.125 µg/mL (≈ 0.279 µM) | MIC90 ([1]; conclusion to Methods 1 and 2): 0.12 µg/mL (≈ 0.268 µM) | Gepotidacin MIC range (Bifidobacterium longum): 0.12 µg/mL | Gepotidacin MIC range [2]: 0.25 µg/mL | Gepotidacin MIC range (Porphyromonas somerae): 0.06 µg/mL | Gepotidacin MIC range (Bacteroides stercoris): 0.12 to 1 µg/mL | Gepotidacin MIC range (Bacteroides fragilis; ceftriaxone R, 35 isolates): 0.25 to 32 µg/mL | Gepotidacin MIC range (Bacteroides fragilis; clindamycin R, 22 isolates): ≤0.015 to 32 µg/mL | Gepotidacin MIC range (Bacteroides fragilis; imipenem R, 1 isolate): 0.5 µg/mL | Gepotidacin MIC range (Bacteroides fragilis; moxifloxacin R, 19 isolates): 0.25 to 32 µg/mL | Gepotidacin MIC range (Bacteroides fragilis; pip/tazo R, 2 isolates): 0.5 to 4 µg/mL | Gepotidacin MIC range [3]: 0.25 µg/mL | Gepotidacin MIC range ([4]; ceftriaxone R): 2 µg/mL | Gepotidacin MIC range ([4]; clindamycin R): 2 µg/mL | Gepotidacin MIC range ([5]; clindamycin R, 4 isolates): 0.125 µg/mL | Gepotidacin MIC range ([5]; moxifloxacin R, 1 isolate): ≤0.015 µg/mL | Gepotidacin MIC range ([6]; ceftriaxone R, 43 isolates): 0.5 to 16 µg/mL | Gepotidacin MIC range ([6]; clindamycin R, 21 isolates): 0.5 to 8 µg/mL | Gepotidacin MIC range ([6]; moxifloxacin R, 6 isolates): 0.5 to 8 µg/mL | Gepotidacin MIC range (Eubacterium limosum): 0.25 to 0.5 µg/mL | Gepotidacin MIC range (Prevotella buccae; ceftriaxone R): 0.25 to 2 µg/mL | Gepotidacin MIC range (Prevotella buccae; clindamycin R): 0.25 to 4 µg/mL | Gepotidacin MIC range (Porphyromonas levii): ≤0.015 µg/mL | Gepotidacin MIC range (Lactobacillus rhamnosus): 0.06 to 1 µg/mL | Gepotidacin MIC range ([7]; ceftriaxone R): 2 µg/mL | Gepotidacin MIC range ([7]; clindamycin R): 2 µg/mL | Gepotidacin MIC range ([7]; moxifloxacin R): 2 µg/mL | Gepotidacin MIC range (Veillonella parvula; ceftriaxone R, 1 isolate): ≤0.015 µg/mL | Gepotidacin MIC range (Veillonella parvula; clindamycin R, 1 isolate): 0.125 µg/mL | Gepotidacin MIC range (Veillonella parvula; moxifloxacin R, 2 isolates): ≤0.015 to 0.03 µg/mL | Gepotidacin MIC range (Veillonella parvula; pip/tazo R, 1 isolate): 0.03 µg/mL | Gepotidacin MIC range ([8]; ceftriaxone R): 0.25 µg/mL | Gepotidacin MIC range ([8]; clindamycin R): 0.25 µg/mL | Gepotidacin MIC range ([9]; ceftriaxone R): 0.125 µg/mL | Gepotidacin MIC range ([9]; clindamycin R): 0.06 µg/mL | Gepotidacin MIC range ([9]; imipenem R): 0.125 µg/mL | Gepotidacin MIC range ([10]; clindamycin R, 1 isolate): 0.03 µg/mL | Gepotidacin MIC range ([10]; imipenem R, 9 isolates): 0.03 to 1 µg/mL | Gepotidacin MIC range (Bacteroides uniformis; ceftriaxone R, 3 isolates): 1 to 2 µg/mL | Gepotidacin MIC range (Bacteroides uniformis; clindamycin R, 1 isolate): 1 µg/mL | Gepotidacin MIC range (Bacteroides uniformis; moxifloxacin R, 1 isolate): 1 µg/mL | MIC [11]: ≤ 8 µg/mL
